One test has as its system pregnant rat. Kind of test: luteolytic activity in the pregnant rat at the 9th-10th day of pregnancy. Format: in vivo. The settings on record: relative to PGF2α = 1 (conventional value). From the text:
The action selectivity of the 13,14-dehydro compounds on the miometrium and on the reproductive apparatus is also proven by the remarkable increase of the luteolytic activity in the pregnant rat at the 9th-10th day of pregnancy. In fact, if the conventional value of 1 is given to the luteolytic activity of PGF2α, the value of 30 is to be given to the luteolytic acitivity of 17-cyclohexyl-20,19,18-trinor-PGF2α, and the value of 200 to the luteolytic activity of 13,14-dehydro-17-cyclohexyl-20,19,18-trinor-PGF2α.

The next test deals with guinea pig ileum. Kind of test: guinea pig ileum test (spasmogenic activity). The conditions noted are these: relative to PGF2α = 1 (conventional value); in vitro, 35° C., Tyrode solution. The source says:
(§1) The same compound (13,14-dehydro-17-cyclohexyl-20,19,18-trinor-PGF2α) was compared with PGF2α and with the olefinic analogue 5c,13t-9α,11α,15S-trihydroxy-20,19,18-trinor-17-cyclohexyl-prosta-5,13-dienoic acid (17-cyclohexyl-20,19,18-trinor-PGF2α) in the following in vitro tests: guinea pig ileum test, rat uterus test, rat stomach fundus. The results are reported in the following Table, wherein to the activity of PGF2 the conventional value of 1 was given in all the tests. The three tests relate to the determination of the spasmogenic activity.
The guinea pig ileum test consisted of a 10 ml thermostatic bath held at 35° C., containing the ileum of a male guinea pig, under 0.5 g traction, carboxygenated in a Tyrode solution; this was left for 30 minutes to stabilize before the compounds were tested. The response was recorded using a isotonic frontal lever, long enough to amplify the response 4.5 times.

Test [1] concerns the target T1, 15-hydroxy-prostaglandin-dehydrogenase (Homo sapiens, UniProt P15428).
T1 construct: 15-hydroxy-prostaglandin-dehydrogenase drawn from human placenta; from tissue; host or cells: human placenta
T1 sequence (P15428 1-266): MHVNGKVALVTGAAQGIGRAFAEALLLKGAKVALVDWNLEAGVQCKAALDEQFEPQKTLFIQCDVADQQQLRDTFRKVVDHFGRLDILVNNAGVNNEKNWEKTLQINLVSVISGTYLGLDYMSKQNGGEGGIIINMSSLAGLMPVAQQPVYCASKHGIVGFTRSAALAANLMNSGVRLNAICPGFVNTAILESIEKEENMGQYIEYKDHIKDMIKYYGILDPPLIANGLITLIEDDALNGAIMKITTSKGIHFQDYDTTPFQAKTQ
The test can be described thus: inhibition of 15-hydroxy-prostaglandin-dehydrogenase drawn from human placenta, in vitro. In kind it is biochemical. The source says:
The compounds of formula (I) furthermore inhibit the use of natural prostaglandins as substrate by the enzyme.

For the next test, the system named is rat stomach fundus. Kind of test: rat stomach fundus test (spasmogenic activity). The conditions noted are these: relative to PGF2α = 1 (conventional value); in vitro, male Sprague-Dawley rats.
Excerpt: as §1
The rat stomach fundus test was performed in the following manner: male albino rats of the Sprague-Dawley strain weighing 200-250 g were utilized. The stomach fundus strip was prepared according to Vane (J. R. Vane, Brit. J. Pharmacol. 12, 344, (1957)). The strip was suspended in a 10 ml organ bath containing Tyrode solution gassed with a mixture of O2 and CO2 (95:5%). The contractions of the strip were recorded using a isotonic frontal lever as in the preceding tests.

The subject of test [2] is rat uterus. Kind of test: rat uterus test (spasmogenic activity). The conditions noted are these: for ratio Uterus/Ileum / ratio Uterus/Stomach Fundus: ratio of activities relative to PGF2α; for ratio Uterus/Ileum: rat uterus / guinea pig ileum; for ratio Uterus/Stomach Fundus: rat uterus / rat stomach fundus; for spasmogenic activity, Rat Uterus: relative to PGF2α = 1 (conventional value), in vitro, 29° C., oestrogenized rat uteri.
Excerpt: as §1
The rat uterus test consisted of a 10 ml thermostatic bath held at 29° C., in which oestrogenized rat uteri under 0.5 g traction were carboxygenated in a Dejalon saline solution. The preparation was left to stabilize for 30 minutes before the compounds were tested. Response was measured using a isotonic frontal lever, long enough to amplify the response 4.5 times.

In test [3] the test system is rat uterus. The test can be described thus: antagonism of PGF2α on the rat uterus. The settings on record: tested against PGF2α.

For `O=C(O)CCCC=CCC1C(O)CC(O)C1C#CC(O)CCC1CCCCC1` (stereo not drawn) [5c-9α,11α,15S-trihydroxy-20,19,18-trinor-17-cyclohexyl-prost-5-en-13-ynoic acid], the luteolytic activity with pregnant rat came to 200. For the same compound, the “spasmogenic activity, Guinea Pig Ileum” value in the test on guinea pig ileum is 0.17. Also, the Ki (as a rule, a dissociation constant, usually derived from enzyme kinetics or from competition with a known ligand) in test [1] (inhibition with respect to PGE2) was found to be 468 µM; in test [1] (inhibition with respect to PGF2α), 152 µM. Further, the results for the kind of inhibition entry in test [1] (with respect to PGE2) and in test [1] (with respect to PGF2α) were “noncompetitive” and “partially competitive”, respectively. For the same compound, in the test on rat stomach fundus, the “spasmogenic activity, Rat Stomach Fundus” value worked out at 1.96. The “ratio Uterus/Ileum” value in the test on rat uterus [2] was determined as 91. Moreover, the “ratio Uterus/Stomach Fundus” value with rat uterus [2] is 8. For the same compound, in the test on rat uterus [2], the “spasmogenic activity, Rat Uterus” value came to 15.7. The “antagonism of PGF2α on the rat uterus” value in the test with rat uterus [3] was “able to antagonize PGF2α specifically and selectively”.

In turn, `O=C(O)CCCC=CCC1C(O)CC(O)C1C=CC(O)CCC1CCCCC1` (stereo not drawn) [17-cyclohexyl-20,19,18-trinor-PGF2α, 5c,13t-9α,11α,15S-trihydroxy-20,19,18-trinor-17-cyclohexyl-prosta-5,13-dienoic acid] displayed a luteolytic activity with pregnant rat of 30. Also, the “spasmogenic activity, Guinea Pig Ileum” value in the test with guinea pig ileum was determined as 0.60. The “spasmogenic activity, Rat Stomach Fundus” value with rat stomach fundus came to 1.86. Besides, in the test on rat uterus [2], the “ratio Uterus/Ileum” value was 5.4; the “ratio Uterus/Stomach Fundus” value is 1.7; the “spasmogenic activity, Rat Uterus” value stood at 3.23.

Take `CCCCC[C@H](O)/C=C/[C@@H]1[C@@H](C/C=C\CCCC(=O)O)[C@@H](O)C[C@H]1O` [PGF2α]: the luteolytic activity with pregnant rat is recorded as 1. In the test on rat uterus [2], the “ratio Uterus/Ileum” value amounted to 1 and the “ratio Uterus/Stomach Fundus” value came out at 1.

(Values after US4361577A, “ω-Nor-cycloalkyl-13,14-dehydro-prostaglandins and process for their preparation” (Carlo Erba - S.p.A., priority 1974, dated 1982).)
